Experimental data as given in article PMC3741170, “Reconstructing the Qo Site of Plasmodium falciparum bc 1 Complex in the Yeast Enzyme” (PLoS ONE, 2013).
Where “and” joins values, the source holds several entries; their conditions need not be identical. Equal values may be shown once.

Columns and labels:
bovine bc 1 complex [1] = molecular target: T1, bovine bc 1 complex (Bos taurus, UniProt P00157); experiment: Quinol:cytochrome c reductase activity, inhibitor titration, bovine mitochondria; format: biochemical; details: bovine enzyme; ratio of IC50 on concentration of monomeric bc 1 complex
T1 construct: Peter Rich; from tissue
Method: (§1) Yeast mitochondria were prepared as in [16]. Bovine mitochondrial samples were kindly given by Prof. Peter Rich (UCL, UK). Quinol:cytochrome c reductase activity measurements were performed in 10mM potassium phosphate pH 7 and 20µM equine cytochrome c at room temperature. Mitochondria were diluted to 5–30 nM bc 1 complex. Concentrations of monomeric bc 1 complex were determined from the cytochrome b α-band in dithionite-reduced optical spectra, using ε = 28.5 mM^−1.cm^−1 at 562 nm minus 575 nm. Activity was initiated by the addition of 20µM decylubiquinol. Cytochrome c reduction was recorded at 550 nm versus 540 nm over a 3-min time-course in a Beckmann DU 640 spectrophotometer. Initial rates were measured. From these rates, turnover numbers (TN) were calculated as cytochrome c reduced per bc 1 complex per second.
(§2) Cytochrome c reduction activity was measured as described above in presence of increasing concentrations of inhibitors (six to ten different concentrations). Each measurement was repeated at least twice and averaged. […] The mid-point inhibition concentrations (IC50) were determined from the titrations. As the titrations were performed using mitochondrial samples containing different concentrations of bc 1 complex (5–30 nM), the results were presented as ratio of IC50 on the concentration of bc 1 complex.

[2] = system: yeast bc 1 complex, Plasmodium-like Qo mutant PF11; experiment: Quinol:cytochrome c reductase activity, inhibitor titration, Plasmodium-like mutant PF11; format: biochemical, Saccharomyces cerevisiae; details: for IC50: PF11, ratio of IC50 on concentration of monomeric bc 1 complex
Method: (§3) The mutants were generated by side-directed mutagenesis and mitochondrial transformation as described in [15]. They have identical nuclear and mitochondrial genomes with the exception of the mutations introduced in the cytochrome b gene.
as §1, §2

[3] = system: yeast bc 1 complex, Plasmodium-like Qo mutant PF12 (PF11 + Y279S); experiment: Quinol:cytochrome c reductase activity, inhibitor titration, Plasmodium-like mutant PF12; format: biochemical, Saccharomyces cerevisiae; details: ratio of IC50 on concentration of monomeric bc 1 complex
Method: as §3, §1, §2

[4] = molecular target: T2, yeast bc 1 complex, Plasmodium-like Qo mutant PF1 (Saccharomyces cerevisiae, UniProt P00163, C133V/C134L/H141Y/V135P/Y136W); experiment: Quinol:cytochrome c reductase activity, inhibitor titration, Plasmodium-like mutant PF1; format: biochemical; details: ratio of IC50 on concentration of monomeric bc 1 complex
T2 construct: Yeast mitochondria were prepared as in; expressed in transfected cells; host or cells: Saccharomyces cerevisiae, mitochondrial transformation; mitochondria
Method: as §3, §1, §2

[5] = molecular target: T3, yeast bc 1 complex, cytochrome b mutant Y279S (Saccharomyces cerevisiae, UniProt P00163, Y279S); experiment: Quinol:cytochrome c reductase activity, inhibitor titration, mutant Y279S; format: biochemical; details: ratio of IC50 on concentration of monomeric bc 1 complex
T3 construct: Yeast mitochondria were prepared as in; expressed in transfected cells; host or cells: Saccharomyces cerevisiae, mitochondrial transformation; mitochondria
Method: as §3, §1, §2

[6] = molecular target: T4, yeast bc 1 complex, cytochrome b mutant L275F (Saccharomyces cerevisiae, UniProt P00163, L275F); experiment: Quinol:cytochrome c reductase activity, inhibitor titration, mutant L275F; format: biochemical; details: for IC50: L275F, ratio of IC50 on concentration of monomeric bc 1 complex
T4 construct: Yeast mitochondria were prepared as in; expressed in transfected cells; host or cells: Saccharomyces cerevisiae, mitochondrial transformation; mitochondria
Method: as §3, §1, §2

Yeast WT bc 1 complex = molecular target: T5, Yeast WT bc 1 complex (Saccharomyces cerevisiae, UniProt P00163); experiment: Quinol:cytochrome c reductase activity, inhibitor titration, yeast WT mitochondria; format: biochemical; details: ratio of IC50 on concentration of monomeric bc 1 complex
T5 construct: Yeast mitochondria were prepared as in; endogenous in cells; host or cells: Saccharomyces cerevisiae mitochondria
Method: as §1, §2

[7] = molecular target: T6, yeast bc 1 complex, Plasmodium-like Qo mutant PF2 (Saccharomyces cerevisiae, UniProt P00163, C133V/C134L/H141Y/L275F/V135P/Y136W); experiment: Quinol:cytochrome c reductase activity, inhibitor titration, Plasmodium-like mutant PF2; format: biochemical; details: ratio of IC50 on concentration of monomeric bc 1 complex
T6 construct: Yeast mitochondria were prepared as in; expressed in transfected cells; host or cells: Saccharomyces cerevisiae, mitochondrial transformation; mitochondria
Method: as §3, §1, §2

[8] = system: yeast bc 1 complex, Plasmodium-like Qo mutant PF8; experiment: Quinol:cytochrome c reductase activity, inhibitor titration, Plasmodium-like mutant PF8; format: biochemical, Saccharomyces cerevisiae; details: for IC50: ratio of IC50 on concentration of monomeric bc 1 complex
Method: as §3, §1, §2

[9] = system: P. falciparum bc 1 complex; details: P. falciparum enzyme; not expressed as molar ratio; cited from earlier work
[10] = system: yeast bc 1 complex, PF11 with deletion Δ158–161; experiment: Quinol:cytochrome c reductase activity, PF11 with deletion Δ158–161; format: biochemical, Saccharomyces cerevisiae; details: deletion introduced in PF11; not shown
Method: as §1, §2

[11] = system: Rhodabacter capsulatus bc 1 complex; details: bacterial complex, phenylalanine naturally at position 275; cited from earlier work
[12] = molecular target: yeast bc 1 complex, human-like Qo mutant HSa; experiment: Quinol:cytochrome c reductase activity, inhibitor titration, human-like mutant HSa; format: biochemical, Saccharomyces cerevisiae; details: ratio of IC50 on concentration of monomeric bc 1 complex
Method: as §3, §1
Cytochrome c reduction activity was measured as described above in presence of increasing concentrations of inhibitors (six to ten different concentrations). Each measurement was repeated at least twice and averaged. […] The mid-point inhibition concentrations (IC50) were determined from the titrations. […]

[13] = molecular target: T7, yeast bc 1 complex, cytochrome b mutant M295L (Saccharomyces cerevisiae, UniProt P00163, M295L); experiment: Quinol:cytochrome c reductase activity, inhibitor titration, mutant M295L; format: biochemical; details: for IC50: M295L, ratio of IC50 on concentration of monomeric bc 1 complex
T7 construct: Yeast mitochondria were prepared as in; expressed in transfected cells; host or cells: Saccharomyces cerevisiae, mitochondrial transformation; mitochondria
Method: as §3, §1, §2

[14] = system: Rhodabacter capsulatus bc 1 complex, mutations I281M and R283K (yeast numbering); set-up: method as in PMID 15917236; details: bacterial complex with I281M and R283K; cited from earlier work
[15] = molecular target: T4, yeast bc 1 complex, cytochrome b mutant L275F; details: vs yeast WT; cited from earlier work
[16] = molecular target: T8, yeast bc 1 complex, human-like Qo mutant HSb (Saccharomyces cerevisiae, UniProt P00163, F278A/L275F/M295L); experiment: Quinol:cytochrome c reductase activity, inhibitor titration, human-like mutant HSb; format: biochemical; details: for IC50: HSb, ratio of IC50 on concentration of monomeric bc 1 complex
T8 construct: Yeast mitochondria were prepared as in; expressed in transfected cells; host or cells: Saccharomyces cerevisiae, mitochondrial transformation; mitochondria
Method: as §3, §1, §2

[17] = molecular target: T9, yeast bc 1 complex, human-like Qo mutant HSc (Saccharomyces cerevisiae, UniProt P00163, C133V/C134L/F278A/H141F/L275F/M295L/V135P/Y136W); experiment: Quinol:cytochrome c reductase activity, inhibitor titration, human-like mutant HSc; format: biochemical; details: for IC50: HSc, ratio of IC50 on concentration of monomeric bc 1 complex
T9 construct: Yeast mitochondria were prepared as in; expressed in transfected cells; host or cells: Saccharomyces cerevisiae, mitochondrial transformation; mitochondria
Method: as §3, §1, §2

[18] = molecular target: T10, yeast bc 1 complex, cytochrome b mutant F278A (Saccharomyces cerevisiae, UniProt P00163, F278A); experiment: Quinol:cytochrome c reductase activity, inhibitor titration, mutant F278A; format: biochemical; details: for IC50 increase (resistance) vs WT: F278A vs yeast WT; for IC50: F278A, ratio of IC50 on concentration of monomeric bc 1 complex
T10 construct: Yeast mitochondria were prepared as in; expressed in transfected cells; host or cells: Saccharomyces cerevisiae, mitochondrial transformation; mitochondria
Method: as §3, §1, §2

bovine bc 1 complex [19] = experiment: Quinol:cytochrome c reductase activity, inhibitor titration, bovine mitochondria; format: biochemical; details: bovine vs yeast WT
Method: as §1, §2

P. falciparum = details: read-out: IC50, P. falciparum proliferation; cited from earlier work

In the case of `CCOC(=O)c1c[nH]c2cc(Oc3ccc(OC(F)(F)F)cc3)ccc2c1=O` [RCQ06], the IC50 (bovine bc 1 complex [1]) is reported as 40 molar ratio, the IC50 [2] is reported as 25 molar ratio and the IC50 [3] is reported as >500 molar ratio. The IC50 [4] was >500 molar ratio, the IC50 [5] was >500 molar ratio and the “increase in sensitivity vs WT” value ([6]; L275F vs yeast WT) was “over 50 fold”. The IC50 [6] was 10 molar ratio, the IC50 (Yeast WT bc 1 complex) was >500 molar ratio and the IC50 [7] was 10 molar ratio. The IC50 [8] was 40 molar ratio and the IC50 [9] was ~1.3 nM and 1.3 nM.
For `O=C1C(O)=C([C@H]2CC[C@H](c3ccc(Cl)cc3)CC2)C(=O)c2ccccc21` [atovaquone], the “effect of deletion Δ158–161 on sensitivity” value [10] was “little effect”, the IC50 (bovine bc 1 complex [1]) was 75 molar ratio and the IC50 [2] was 3 molar ratio. For the same compound, the IC50 [11] was ~30 nM, the IC50 [12] was 200 molar ratio and the IC50 [3] was >850 molar ratio. The IC50 [4] was 2 molar ratio, the IC50 [5] was >850 molar ratio and the “IC50 increase (resistance) vs WT” value ([6]; L275F vs yeast WT) was 35 fold. The IC50 [6] was 150 molar ratio, the “IC50 increase (resistance) vs WT” value ([13]; M295L vs yeast WT) was 2.5 fold and the IC50 [13] was 10 molar ratio. For the same compound, the IC50 (Yeast WT bc 1 complex) was 4 molar ratio, the IC50 [7] was 10 molar ratio and the IC50 [14] was 10 nM. For the same compound, the “decrease in sensitivity on introducing L275F in yeast bc 1 complex” value [15] was “over 20 fold”, the IC50 [8] was 16 molar ratio and the IC50 [16] was 170 molar ratio. For the same compound, the IC50 [9] was ~3 nM and 3 nM, the “resistance vs WT enzyme” value ([17]; HSc vs yeast WT) was 15 fold and the IC50 [17] was 60 molar ratio. For the same compound, the “IC50 increase (resistance) vs WT” value [18] was 9 fold and the IC50 [18] was 35 molar ratio.
With `CO/C=C(/C(=O)OC)c1ccccc1Oc1cc(Oc2ccccc2C#N)ncn1` [azoxystrobin] the IC50 (bovine bc 1 complex [1]) was 180 molar ratio, the “resistance of the mammalian enzyme compared to yeast enzyme” value (bovine bc 1 complex [19]) was 9 fold and the IC50 [2] was 40 molar ratio. For the same compound, the “lowering of resistance by changes in position 133 to 141” value ([2]; PF11 vs PF8) was 5 fold, the IC50 [12] was 130 molar ratio and the IC50 [3] was 30 molar ratio. For the same compound, the IC50 (P. falciparum) was 15 nM, the IC50 [4] was 5 molar ratio and the IC50 [5] was 60 molar ratio. The IC50 [6] was 30 molar ratio, the IC50 [13] was 45 molar ratio and the IC50 (Yeast WT bc 1 complex) was 20 molar ratio. The IC50 [7] was 16 molar ratio, the “increase in resistance caused by modifications of residues 283 to 299” value [8] was 10 fold and the IC50 [8] was 220 molar ratio. For the same compound, the “resistance conferred by triple mutation” value ([16]; HSb vs yeast WT) was 8 fold, the IC50 [16] was 160 molar ratio and the IC50 [17] was 140 molar ratio. For the same compound, the “IC50 increase (resistance) vs WT” value [18] was 6 fold and the IC50 [18] was 120 molar ratio.
For antimycin, the “sensitivity compared with that of the WT control” value ([2]; PF11 vs WT, data not shown) was “No or very little difference” and the “sensitivity compared with that of the WT control” value ([17]; HSc vs WT, data not shown) was “No or very little difference”.
